# Measurements from PMC10510387, “Targeting Cytotoxic Agents through EGFR-Mediated Covalent Binding and Release” (Journal of Medicinal Chemistry, 2023).
# “Also recorded” adds a separate entry of the source. Read-outs that look alike come from different tables or passages of the source.
# Key:
# [1] = biological target: T1, WT EGFR (Homo sapiens, UniProt P00533); assay: In vitro TR-FRET assay, WT EGFR; format: binding; settings: for WT EGFR pIC50: Table S1, TR FRET, n=1, 2 technical replicates
# [2] = tested on: DM EGFR; assay: In vitro TR-FRET assay, DM EGFR; format: binding
# [3] = biological target: T1, WT EGFR; assay: Protein mass spectrometry after incubation of compound with EGFR; format: binding; settings: for adduct formation with EGFR / release of 5FU from EGFR adduct: 15 μM compound, 4 μM EGFR, 4 hr; for adduct formation with EGFR: ambient temperature; for release of 5FU from EGFR adduct: protein mass spectrometry; for mass increase of adduct after loss of 5FU / mass increase of initial (intact) adduct: relative to apo protein
# Description: Compounds were suspended in 10 mM in 100% DMSO and were added to 4 μM of EGFR to achieve the final compound concentration of 15 μM in 1% DMSO, in 25 mM Tris pH 8, 150 mM NaCl, 5% Glycerol before incubating at an ambient temperature for 4 hr time prior to analysis.
# Following incubation, intact protein masses were determined using an Agilent 6530 Accurate Mass dual AJS/ESI Q-TOF instrument coupled to an Agilent 1260 Infinity II LC system. 1 μL of purified protein (∼1 mg/mL) was injected onto an MS Pac DS-10 Desalter cartridge ((Thermo Fisher Scientific), PN: 089170, 2.1 × 10 mm) for desalting and reversed phase separation at 70 °C. The mobile phase was 0.1% (v/v) formic acid in LC-MS grade water (A) and LC-MS grade acetonitrile (B) with separation performed over 7.5 min. […] Proteins were detected in positive ion mode using electrospray ionization with a nebulizer pressure of 45 psig, a drying gas flow of 5 L/min, and a source gas temperature of 325 °C. A sheath gas temperature of 400 °C, a gas flow of 11 L/min, a capillary voltage of 3500 V, and a nozzle voltage of 2000 V were also used. Mass spectra were acquired using MassHunter Acquisition software (version B.08.00) over a mass range of 100–3000 m/z at a rate of 1 spectra/s and 1000 ms/spectrum in the standard mass range (3200 m/z) at 2 GHz. The instrument had been calibrated over the selected mass range prior to analysis.
# [4] = Compound media stability (LC-MS); format: physicochemical; settings: DMEM + 10% FCS, 1.0 μM, 25 h
# Description: Compound 53 (0.760 mg, 1.51 μmol) was dissolved in DMSO […] and then added to DMEM (Sigma-Aldrich 5796) + 10% FCS media (1.50 mL) such that the final concentration was 1.0 μM. Liquid chromatography-mass spectrometry (LC-MS) analysis was carried out at t = 0, 1, 3, and 25 h.
# [5] = 19F NMR 5FU release study with N-acetyl-L-cysteine methyl ester; format: physicochemical; settings: reaction with N-acetyl cysteine
# Description: Reaction of the model systems with N-acetyl-L-cysteine methyl ester was assessed by ^19F NMR.
# Acrylate-5FU conjugate (0.125 M) in d^6-DMSO (0.25 mL) was prepared in an NMR tube. N-Acetyl cysteine methyl ester (1.9 mg, 0.011 mmol) or glutathione (3.4 mg, 0.011 mmol) in d^6-DMSO was prepared. The cysteine/glutathione solution was added to the NMR tube, and the tube was inverted several times. The ^19F NMR was taken immediately for t = 0 measurement. Further measurements were taken at t = 30 min and t = 60 min.
# [6] = tested on: A431 cells; assay: Growth inhibition in adherent cell lines (SRB, 72 h); format: cell-based; settings: for GI50: Homo sapiens, A-431, 72 h
# Description: On day 1, the compounds were diluted to the required concentration in DMEM +10% FBS media, ensuring that the final DMSO concentration was 0.1% once added to cells. […] Cells were then fixed by adding 50% (wt/vol) TCA to each well of the plate and left at 4 °C for 1 h. The plates were then washed thoroughly with water, 100 μL of 0.4% SRB solution was added to the wells, and left at room temperature for 30 min. The plates were rinsed with 1% AcOH and then left to air-dry in a drying cabinet for 1 h. […] The absorbance was read at 570 nm using a FluoStar Omega plate reader.
# [7] = tested on: EGFR phosphorylation in A431 cells; assay: pEGFR inhibition by Western blot in A431; format: cell-based; settings: 4 h
# Description: Appropriately treated cells were lysed in Phosphosafe extraction buffer combined with cOmplete Protease Inhibitor Cocktail (Merck) prepared as per the manufacturer’s instructions.
# Samples were prepared in Eppendorf vials by diluting them to the required concentrations with phosphate-buffered saline (PBS), and the appropriate amount of 4X XT sample buffer was added. This solution was vortexed, centrifuged, then placed at 98 °C for 5 min, and then centrifuged to remove the residue. Migration was performed using a 4–20% Criterion TGX Precast Midi Protein Gel, 18 well, 30 μL (Cat. No. 5671094) placed in a Criterion running tank (Cat. No. 1656001) and also using PowerPac HC high-current power supply (Bio-Rad) electrodes. Nitrocellulose membrane used was an Amersham Protran Premium 0.45 Nitrocellulose membrane (Cat. No. 15269794) and Ponceau S Stain (Sigma-Aldrich Cat. No. p7170).
# Primary antibodies raised to EGFR (CST 4267) or pEGFR (CST 3777) were diluted (1:1000) in 5% BSA w/v. Loading control antibodies were prepared in 5% milk w/v with 1 × TBS/T (0.1 v/v) solution at a determined optimum concentration.
# Secondary HRP-conjugated antibodies were diluted in 5% milk with w/v in 1 × TBS/T (0.1 v/v) solution at a determined optimum concentration.
# Proteins were detected using the Clarity ECL Western blotting substrate (Bio-Rad).
# [8] = tested on: pEGFR (Tyr1068) in A431 cells; assay: Cellular pEGFR inhibition by HTRF (A431); format: cell-based; settings: for pEGFR pIC50: Figure 5a; for IC50: Homo sapiens, A-431, Figure 5a, read-out: pEGFR pIC50 (converted)
# Description: Cells were plated at 20 000 cells per well in 96-well plates and placed at 37 °C with 5% CO2. […] Compound and media were removed from the cells, and then 50 μL of HTRF lysis buffer was added (lysis buffer was diluted from 4× stock to 1× in deionized (DI) water, with 1% blocking agent also added). Cells were lysed on a plate shaker (2000 rpm) for 30 min at room temperature. pEGFR expression was monitored using the Cisbio Phospho-EGFR (Tyr1068) cellular kit (64EG1PEH). Total EGFR expression was monitored using the Cisbio Total EGFR cellular kit (64NG1PEH) as per the manufacturer’s instructions. […] Results were calculated as the ratio of pEGFR/total EGFR and then the percentage of 0 μM control.
# [9] = Table S1, TR FRET, n=1, 2 technical replicates
# [10] = WT EGFR, TR-FRET, n > 2, Figure 5a and text
# [11] = A431 cell viability, 72 h, Figure 5c
# [12] = A431 cell viability, 72 h, Figure 6b, single agents and equimolar combination
compound,measurement,setting,value
"2-Fluoro-4-methoxy-5-((4-(1-methyl-1H-indol-3-yl)pyrimidin-2-yl)amino)phenyl (E)-3-(5-fluoro-2,4-dioxo-3,4-dihydropyrimidin-1(2H)-yl)acrylate [compound 35]",WT EGFR pIC50,[1],< 4.0
same,DM EGFR pIC50,[2]; [9],5.5
same,adduct formation with EGFR,[3],evidence of adduct formation
same,release of 5FU from EGFR adduct,[3],without evidence of the release of 5FU
"3-((4-(1-Methyl-1H-indol-3-yl)pyrimidin-2-yl)amino)-4-nitrophenyl (E)-3-(5-Fluoro-2,4-dioxo-3,4-dihydropyrimidin-1(2H)-yl)acrylate [compound 39]",WT EGFR pIC50,[1],< 4.0
same,DM EGFR pIC50,[2]; [9],3.7
same,adduct formation with EGFR,[3],evidence of adduct formation
same,release of 5FU from EGFR adduct,[3],without evidence of the release of 5FU
"4-((3-Chloro-4-fluorophenyl)amino)-7-methoxyquinazolin-6-yl (E)-3-(5-fluoro-2,4-dioxo-3,4-dihydropyrimidin-1(2H)-yl)acrylate [compound 53]",hydrolysis in cell media,[4],some hydrolysis did occur
same,release of 5FU in cell media,[4],no observation of the release of 5FU
same,time to complete release of 5FU,[5],1 h
same,EGFR pIC50,[1]; [10],6.8
same,pGI50,[6]; [11],5.3
same,inhibition of EGFR phosphorylation at 1 μM,[7],not at 1 μM
same,inhibition of EGFR phosphorylation at 10 μM,[7],marked inhibition
same,pEGFR pIC50,[8],7.8
same,adduct formation with EGFR,[3],two new major adducts
same,release of 5FU from EGFR adduct,[3],loss of 5FU from the complex
same,mass increase of adduct after loss of 5FU,[3],372 Da
same,mass increase of initial (intact) adduct,[3],502 Da
"O=c1[nH]cc(F)c(=O)[nH]1 [5-FU, 5-fluorouracil, reference compound]",GI50,"[6]; A431 cell viability, 72 h, Figure 6a, single agents and equimolar combination",631 nM
same,GI50,[6]; [12],631 nM
"COc1cc2ncnc(Nc3ccc(F)c(Cl)c3)c2cc1NC(=O)/C=C/CN1CCCCC1 [compound 2, dacomitinib, reference compound]",GI50,[6]; [11],79.4 nM
same,IC50,[8],10 nM
"COc1cc2ncnc(Nc3ccc(F)c(Cl)c3)c2cc1OC(=O)/C=C/CN1CCCCC1 [compound 56, 4-((3-Chloro-4-fluorophenyl)amino)-7-methoxyquinazolin-6-yl (E)-4-(piperidin-1-yl)but-2-enoate]",EGFR pIC50,[1]; supplementary CSV column,8.1 +/- 0.82
same,GI50,[6]; [11],> 10000 nM
same,GI50,[6]; [12],10000 nM
same,inhibition of EGFR phosphorylation at 1 μM,[7],some inhibition
same,IC50,[8],5010 nM
"(E)-1-(3-(3-((4-((3-Chloro-4-fluorophenyl)amino)-7-methoxyquinazolin-6-yl)oxy)azetidin-1-yl)-3-oxoprop-1-en-1-yl)-5-fluoropyrimidine-2,4(1H,3H)-dione [compound 48]",WT EGFR pIC50,[1],6.6
same,DM EGFR pIC50,[2]; [9],6.7
same,adduct formation with EGFR,[3],covalent adduct formation
same,release of 5FU from EGFR adduct,[3],without evidence of the release of 5FU
"(E)-1-(3-(4-((4-((3-Chloro-4-fluorophenyl)amino)-7-methoxyquinazolin-6-yl)oxy)piperidin-1-yl)-3-oxoprop-1-en-1-yl)-5-fluoropyrimidine-2,4(1H,3H)-dione [compound 51]",WT EGFR pIC50,[1],6.6
"(E)-N-(3-((5-Chloro-4-(pyrazolo[1,5-a]pyridin-3-yl)pyrimidin-2-yl)amino)-4-methoxyphenyl)-3-(5-fluoro-2,4-dioxo-3,4-dihydropyrimidin-1(2H)-yl)acrylamide [compound 30]",WT EGFR pIC50,[1],5.7
same,DM EGFR pIC50,[2],6.8
same,adduct formation with EGFR,[3],an adduct formed
same,release of 5FU from EGFR adduct,[3],without 5FU release; also recorded: no evidence of the release of 5FU
same,mass increase of initial (intact) adduct,[3],548 Da
"(E)-N-(4-((3-Chloro-4-fluorophenyl)amino)-7-methoxyquinazolin-6-yl)-3-(5-fluoro-2,4-dioxo-3,4-dihydropyrimidin-1(2H)-yl)acrylamide [compound 57]",EGFR pIC50,[1]; [10],7.3
same,antiproliferative effect,"[6]; A431, 72 h growth inhibition",no antiproliferative effects
same,pGI50,[6]; supplementary CSV column,<5.0
same,inhibition of EGFR phosphorylation at 10 μM,[7],little inhibition
same,pEGFR pIC50,[8],5.6
same,adduct formation with EGFR,[3],clear adduct
same,release of 5FU from EGFR adduct,[3],negligible release of 5FU
same,mass increase of adduct after loss of 5FU,[3],371 Da
same,mass increase of initial (intact) adduct,[3],501 Da
"(R, E)-1-(3-(3-((4-((3-Chloro-4-fluorophenyl)amino)-7-methoxyquinazolin-6-yl)oxy)pyrrolidin-1-yl)-3-oxoprop-1-en-1-yl)-5-fluoropyrimidine-2,4(1H,3H)-dione [compound 49]",WT EGFR pIC50,[1],5.6
same,DM EGFR pIC50,[2]; [9],6.4
"(S, E)-1-(3-(3-((4-((3-Chloro-4-fluorophenyl)amino)-7-methoxyquinazolin-6-yl)oxy)pyrrolidin-1-yl)-3-oxoprop-1-en-1-yl)-5-fluoropyrimidine-2,4(1H,3H)-dione [compound 50]",WT EGFR pIC50,[1],5.9
same,DM EGFR pIC50,[2]; [9],6.6
